Measurements from patent publication US6121248A, “Anti-viral agent” (priority 1998, dated 2000).
≈ marks a conversion by molar mass, not a printed value. Read-outs that look alike come from different tables or passages of the source.

Legend:
[1] = Cytotoxicity in virus-free MRC-5 cells (Example 2); format: cell-based; settings: human
Description: (§1) The anti-viral activity against cytomegalovirus was also determined by the microplaque reduction method in the same manner as in Example 1. That is, MRC-5 cells were cultured in a 96-well microtiter plate until the cells reached the confluent state. Each of the compounds being tested was added to the wells to which a preparation of human cytomegalovirus (AD 169 strain) was subsequently added. The plate was cultured at 37° C. in a CO2 incubator. On day 6 after the culture, physiological saline containing 10% formalin was added to the wells and the plate was allowed to stand overnight to fix the cells to the wells. After washing the plate, the cells were stained with a crystal violet solution and then washed. The focus formation by cytomegalovirus was observed microscopically and the number of the foci was counted.
The virus-free group in which, in place of the preparation of cytomegalovirus, the culture medium was added to the MRC-5 cells was also cultured in the same manner.

varicella-zoster virus = test: Anti-viral activity against varicella-zoster virus, microplaque reduction method; format: cell-based, varicella-zoster virus (HOSEN strain); settings: for EC50: Human alphaherpesvirus 3, MRC5, 72 h, varicella-zoster virus HOSEN strain, MRC-5 cells, 35° C., day 3, read-out: ED50 (50% effective density); for SI (selectivity index, CC50/ED50): varicella-zoster virus
Description: Determination of Anti-viral Activity against Varicella-zoster Virus
(§2) The anti-viral activity against varicella-zoster virus was determined by the microplaque reduction method. That is, MRC-5 cells were cultured in a 96-well microtiter plate until the cells reached the confluent state. Each of the compounds being tested was added to the wells to which a preparation of varicella-zoster virus (HOSEN strain) was subsequently added. The plate was cultured at 35° C. in a CO2 incubator. On day 3 after the culture, physiological saline containing 10% formalin was added to the wells and the plate was allowed to stand overnight to fix the cells to the wells. After wasing the plate, the cells were stained with a crystal violet solution and then washed. The focus formation by varicella-zoster virus was observed microscopically and the number of the foci was counted.
(§3) The concentration of each compound that inhibits by 50% of the number of foci observed in a group containing no compound was determined as a 50% effective density (ED50).
(§4) The selectivity index (SI), which is the ratio of the cytotoxic concentration to the anti-virally effective density, was determined by the equation: […]

cytomegalovirus = test: Anti-viral activity against cytomegalovirus, microplaque reduction method; format: cell-based, human cytomegalovirus (AD 169 strain); settings: for EC50: Human betaherpesvirus 5, MRC5, 144 h, human cytomegalovirus AD 169 strain, MRC-5 cells, 37° C., day 6, read-out: ED50 (50% effective density); for SI (selectivity index, CC50/ED50): cytomegalovirus
Description: Determination of Anti-viral Activity against Cytomegalovirus
as §1, §3, §4

[2] = Cytotoxicity in virus-free MRC-5 cells (Example 1); format: cell-based; settings: human
Description: as §2
The virus-free group in which, in place of the preparation of varicella-zoster virus, the culture medium was added to the MRC-5 cells was also cultured in the same manner.

[3] = Acute toxicity test, variation of body weight of mice; format: in vivo, Mouse: ICR; settings: 1 or 2 g/kg ip., male ICR mice
Description: With respect to 2-thio-5-iodocytosine arabinoside (5-I-AraSC) which was evidenced to have the anti-viral effect in vitro, the acute toxicity was also determined in the following manner.
Mouse: ICR, male, 4 weeks;
Drug: 5-I-AraSC, 1 or 2 g/kg, ip., n=6.
The drug 5-I-AraSC was administered in a dosage of 1 or 2 g/kg to each mouse intraperitoneally, and the variation of a body weight of each mouse was examined.

[4] = MRC-5 cells, virus-free, cultured as in varicella-zoster test (day 3), read-out: CC50 (50% cytotoxic concentration)

Structure (SMILES) | CC50 at 144 h ([1]; mrc-5 cells) | EC50 (varicella-zoster virus) | SI (selectivity index, CC50/ED50) (varicella-zoster virus) | EC50 (cytomegalovirus) | SI (selectivity index, CC50/ED50) (cytomegalovirus) | CC50 at 72 h ([2]; mrc-5 cells) | death of the mice ([3]; during the test) | acute toxicity ([3]; overall conclusion) | CC50 at 72 h [2, 4] | CC50 at 144 h ([1]; MRC-5 cells, virus-free, cultured as in cytomegalovirus test (day 6), read-out: CC50 (50% cytotoxic concentration))
Nc1nc(=S)n([C@@H]2O[C@H](CO)[C@@H](O)[C@@H]2O)cc1I [2-thio-5-iodocytosine arabinoside] | > 100 µg/mL | 0.7 µg/mL (≈ 1.82 µM) | > 143 | 0.26 µg/mL (≈ 0.675 µM) | > 385 | > 100 µg/mL | No death of the mice was observed during the test | not so strong | – | –
O=c1[nH]c(=S)n([C@@H]2O[C@H](CO)[C@@H](O)[C@@H]2O)cc1I [2-thio-5-iodouracil arabinoside] | – | 3.1 µg/mL (≈ 8.03 µM) | 6.5 | – | – | – | – | – | 20 µg/mL (≈ 51.8 µM) | –
Nc1nc(=S)n([C@@H]2O[C@H](CO)[C@@H](O)[C@@H]2O)cc1F [2-thio-5-fluorocytosine arabinoside] | – | 1.65 µg/mL (≈ 5.95 µM) | > 60 | 0.16 µg/mL (≈ 0.577 µM) | > 625 | – | – | – | > 100 µg/mL | > 100 µg/mL
Nc1nc(=S)n([C@@H]2O[C@H](CO)[C@@H](O)[C@@H]2O)cc1Br [2-thio-5-bromocytosine arabinoside] | > 100 µg/mL | 7.5 µg/mL (≈ 22.2 µM) | > 13 | 2.4 µg/mL (≈ 7.1 µM) | > 42 | > 100 µg/mL | – | – | – | –
